The text below walks through data of patent US20160367464A1, “METHOD AND COMPOSITION FOR IMPROVING SKIN CONDITIONS COMPRISING HUMAN PLACENTAL LACTOGEN AS AN ACTIVE INGREDIENT” (Regeron, Inc., priority 2012, published 2016).

Values joined by “and” are separate entries in the source; they are usually repeats but may differ in a detail not shown here. Equal entries are not always repeated.

What all share (assay type): in vivo, mouse
For experiment [1], the system named is Nc/Nga mice with short term atopic dermatitis. As to the kind of experiment: Skin damage score, short term TNCB-induced atopic dermatitis. The note with it: short term (6 weeks); for Overall damage: sum of erythema, edema, erosion, dryness divided by number of animals (3). How it is done: (§1) Four weeks old male Nc/Nga mice were purchased from Orientbio Inc. (Korea) and bred at 24±2° C. and 50±10% relative humidity under 12 hours light/dark cycles. Animals were subject to 1-week acclimating period prior to the experiments.
First, the dorsal area of Nc/Nga mice was shaved, which was sensitized by applying 5% TNCB 150 µl. Then 1% TNCB solution made in olive oil was applied to the sensitized area once every week for 6 weeks.
(§2) Lipo-hPL (20 μg/ml) was topically applied 5 times per week for 6 weeks (short term) and 13 weeks (long term).
(§3) The skin damage was classified to 4 types as described in the Table 8. Based on the pictures taken every week for the inflamed dorsal area, the severity of the damage was evaluated and scored based on the 4 levels as shown below.

For experiment [2], the system named is Nc/Nga mice with long term atopic dermatitis. As to the kind of experiment: Skin damage score, long term TNCB-induced atopic dermatitis. As for the experimental part:
as §1
The dorsal area of Nc/Nga mice was shaved, which was sensitized by applying 5% TNCB 150 µl. Then 1% TNCB solution made in olive oil was applied to the sensitized area for total 22 times over the period of 13 weeks.
as §2, §3

In another experiment the test system is serum IgE. The experiment in a line: Serum IgE measurement (ELISA) in Nc/Nga mice with atopic dermatitis. The following applies: TNCB-treated Nc/Nga mice, short term topical application (FIG. 13), Lipo-hPL 20 μg/ml. The text has this: Atopic individuals can have up to 10 times the normal level of IgE in their blood, even though this may not be a requirement for symptoms to occur as has been seen in asthmatics with normal IgE levels in their blood—recent research has shown that IgE production can occur locally in the nasal mucosa (Takhar P et al. (2005) J Immunol 174 (8): 5024-32). After the completion of the Lipo-hPL treatment for the induced inflammation, blood was drawn from the great saphenons vein and the serum was obtained by centrifugation. The serum IgE was measured using the IgE ELISA kit (GomaBiotech, Korea).
A general note: ELISA stands for enzyme-linked immunosorbent assay.

Experiment [3] concerns Nc/Nga mice with atopic dermatitis. The experiment in a line: Skin thickness measurement on H&E stained slides, Nc/Nga mice with atopic dermatitis. An excerpt: Upon the completion of all necessary treatments, affected areas of the dorsal skin was severed and fixed in 4% formaldehyde and set into a block using paraffin. The paraffin block was cut into 10 um thin slices using microtome, which were set on glass slides followed by stained with hematoxylin and eosin (H&E) before subject to the microscopic observation.
The tissue slides stained with H&E were photographed in order to measure the skin thickness ranging from exoderm, fat layer to the muscle layer using the appropriate software provided for the microscope utilized for the measurement of skin thickness.

The subject of experiment [4] is UVB-irradiated SKH-1 female nude mice. As to the kind of experiment: Wrinkle improving effects in UVB-irradiated SKH-1 hairless nude mice (Donald method). Further details: key: —: No wrinkle formation; *: Slightly deep and thick wrinkle; **: Slightly to moderately deep and thick wrinkle; ***: Moderately deep and thick wrinkle; ****: Moderately to severely deep and thick wrinkle; *****: Severely deep and thick wrinkle. The following applies: SKH-1 nude mice, U.V. irradiation Yes, 0.1% retinoic acid in 15% EtOH. As for the experimental part:
The 4-week-old SKH-1 female nude mice were purchased from Douyul Biotech, Sungnam, Korea). The animal breeding chambers were kept at 24±0.2° C. and relative humidity at 50±10% in a 12-hr light/12-hr dark cycle. The animals were permitted free access to solid feed (Central Lab. Animal Inc., Seoul, Korea) and water sterilized by irradiation and acclimated for about 2 weeks before divided them into 7 groups by random selection.
In order to induce wrinkle formation on the backside of the nude mice, UVB was irradiated to the mice three times a week for 11 weeks using the VLX-3W stimulator (Vilber Lourmat, Marne la Vallee, France) in the protocol: 30 mJ/cm^2 for the weeks 1 and 2, 40 mJ/cm^2 for the weeks 3 and 4, 50 mJ/cm^2 for the weeks 5 through 9, and 60 mJ/cm^2 for the weeks 10 and 11. […]
The wrinkle-improving effect was evaluated according to the Donald method (Hyun-Seok Kim et. al, Mech. Ageing Dev. 126:1255-61, 2005). […] In the present invention, the effects of Lipo-hPL and other skin-conditioning agents on wrinkle formation were evaluated by observing changes of the thickness and depth of wrinkles before and after treatments.

The mark [5] stands for this setting: score 0-3 per animal summed over 3 animals, Lipo-hPL 20 μg/ml topical 5 times per week.
[6] abbreviates: long term (13 weeks), scores summed over 2 animals, Lipo-hPL 20 μg/ml topical 5 times per week.

In experiment [1] (setting [5]), `C=CC[C@@H]1/C=C(\C)C[C@H](C)C[C@H](OC)[C@H]2O[C@@](O)(C(=O)C(=O)N3CCCC[C@H]3C(=O)O[C@H](/C(C)=C/[C@@H]3CC[C@@H](O)[C@H](OC)C3)[C@H](C)[C@@H](O)CC1=O)[C@H](C)C[C@@H]2OC` [Tacrolimua (FK506), Tacrolimua] had a Dryness of 3, an Edema of 0, an Erosion of 3 and an Erythema of 3. The compound further registered an Overall damage in experiment [1] of 3.0. The Overall damage in experiment [1] (listed as FK506) is given as 3.0±0.3. In experiment [2] (setting [6]), this compound had a Dryness of 3, an Edema of 1.5, an Erosion of 3.5 and an Erythema of 1.5. For the same compound, the Overall damage in experiment [2] (long term (13 weeks), sum of erythema, edema, erosion, dryness divided by number of animals (2)) is 4.75 and 4.8. The “Long term skin damages score” value in experiment [2] (long term, out of 10 as the most severe damage) stood at 2.4±0.7. Further, the IgE in the experiment with serum IgE amounted to 107.1 ng/mL. The “Exodermal thickness of animals treated with TNCB only relative to treated animals” value in experiment [3] is reported as “approximately 10 folds”. The “Average skin thickness (epidermis, dermis and subcutaneous layer)” value in experiment [3] (TNCB-treated Nc/Nga mice, long term topical application (FIG. 16)) was 408.0±23.4 μm.
For `CC1=C(/C=C/C(C)=C/C=C/C(C)=C/C(=O)O)C(C)(C)CCC1` [Retinoic acid, retinoic acid], the “Changes in wrinkle depth and thickness” value is listed as “**” in experiment [4] (Appendix Table 5, topical 11 weeks, 20 μg/ml Lipo-hPL, 4.1 μg/ml Lipo-his-hPL) and “**” in experiment [4] (topical 5 times a week for 11 weeks, 20 µg/ml Lipo-hPL, 4 µg/ml Lipo-his-hPL).
